Reference: patent publication US8383853B2, “Method for preparing 2,6-diethyl-4-methylphenylacetic acid” (Bayer Cropscience AG, priority 2004, dated 2013)

Experiments:
Type in all cases: in vivo
Setaria viridis [1] = assay: Herbicidal post-emergence action; details: greenhouse, 80 g of a.i./ha
Protocol: (§1) Seeds of monocotyledonous and dicotyledonous weed and crop plants are placed into sandy loam in wood fiber pots, covered with soil and cultivated in a greenhouse under good growth conditions. Two-three weeks after sowing, the test plants are treated at the one-leaf stage. The test compounds, formulated as wettable powders (WP), are then, in various dosages with a water application rate of 600 l/ha (converted), with 0.2% of wetting agent added, sprayed onto the green parts of the plants. After the test plants have been kept in the greenhouse under optimum growth conditions for about 3 weeks, the effect of the preparations is rated visually in comparison to untreated controls (herbicidal effect in percent (%): 100% effect=the plants have died, 0% effect=like control plants).

Avena fatua [2] = assay: Herbicidal post-emergence action; details: greenhouse, 80 g of a.i./ha
Protocol: as §1

Veronica [3] = assay: Herbicidal post-emergence action; details: greenhouse, 80 g of a.i./ha
Protocol: as §1

Alopecurus [4] = assay: Herbicidal post-emergence action; details: greenhouse, 80 g of a.i./ha
Protocol: as §1

Lolium multiflorum [5] = assay: Herbicidal post-emergence action; details: greenhouse, 80 g of a.i./ha
Protocol: as §1

Summer wheat = assay: Container trials with cereal, post-emergence, without or with safener; details: crop damage, 28 days after application
Protocol: (§2) Seeds of monocotyledonous and dicotyledonous weed and crop plants are placed into sandy loam in wood fiber pots or in plastic pots, covered with soil and cultivated in a greenhouse, during the vegetation period also outdoors outside of the greenhouse, under good growth conditions. Two-three weeks after sowing, the test plants are treated at the one- to three-leaf stage. The test compounds, formulated as wettable powders (WP) or liquid (EC) are, in various dosages with a water application rate of […] (converted), with wetting agent (0.2 to 0.3%) added, sprayed onto the plants and the surface of the soil. Three-four weeks after the treatment of the test plants, the effect of the preparations is rated visually in comparison to untreated controls (herbicidal effect in percent (%): 100% effect=the plants have died, 0% effect=like control plants).
(§3) If it is additionally to be tested as to whether safeners can improve the plant compatibility of test substances in the case of crop plants, the following options are used for applying the safener: • seeds of the crop plants are, before sowing, dressed with the safener substance (the amount of safener stated in percent, based on the weight of the seed) • before the application of the test substances, the crop plants are sprayed with the safener at a certain application rate per hectare (usually 1 day before the application of the test substances) • the safener is applied together with the test substance as a tank mix (the amount of safener is stated in g/ha or as a ratio, based on the herbicide).
(§4) By comparing the effect of the test substances on crop plants without or with safener treatment, it is possible to assess the effect of the safener substance.

Echinochloa crus-galli = assay: Herbicidal post-emergence action; details: greenhouse, 80 g of a.i./ha
Protocol: as §1

Setaria viridis [6] = assay: Herbicidal pre-emergence action; details: greenhouse
From the text: (§5) Seeds of monocotyledonous and dicotyledonous weed and crop plants are placed in sandy loam in wood fiber pots and covered with soil. The test compounds, formulated in the form of wettable powders (WP), are then, as an aqueous suspension with a water application rate of 600 l/ha (converted), with 0.2% of wetting agent added, applied to the surface of the covering soil in various dosages.
(§6) After the treatment, the pots are placed in a greenhouse and kept under good growth conditions for the test plants. The visual assessment of the emergence damage on the test plants is carried out after a trial period of 3 weeks by comparison with untreated controls (herbicidal effect in percent (%): 100% effect=the plants have died, 0% effect=like control plants).

Echinochloa = assay: Herbicidal pre-emergence action; details: greenhouse, 80 g of a.i./ha
From the text: as §5, §6

Alopecurus [7] = assay: Herbicidal pre-emergence action; details: greenhouse
From the text: as §5, §6

Lolium multiflorum [8] = assay: Herbicidal pre-emergence action; details: greenhouse
From the text: as §5, §6

Meloidogyne incognita = assay: Meloidogyne test (spray treatment); details: 20 ppm of a.i., after 14 d
Protocol: To produce a suitable preparation of active compound, 1 part by weight of active compound is mixed with the stated amounts of solvent, and the concentrate is diluted with water to the desired concentration.
Vessels are filled with sand, solution of active compound, Meloidogyne incognita egg/larva suspension and lettuce seeds. The lettuce seeds germinate and the plants develop. On the roots, galls are formed.
After the desired period of time, the nematicidal activity is determined in % by the formation of galls. 100% means that no galls have been found; 0% means that the number of galls on the treated plants corresponds to that of the untreated control.

Avena fatua [9] = assay: Herbicidal pre-emergence action; details: greenhouse
From the text: as §5, §6

Veronica [10] = assay: Herbicidal pre-emergence action; details: greenhouse, 320 g of a.i./ha
From the text: as §5, §6

Summer barley = assay: Container trials with cereal, post-emergence, without or with safener; details: crop damage
Protocol: as §2, §3, §4

[11] = greenhouse, post-emergence, 12.5 g of a.i./ha
[12] = greenhouse, post-emergence, 25 g of a.i./ha

Structure (SMILES): CCc1cc(C)cc(CC)c1C1=C(OC(=O)COC)C2(CCC(OC)CC2)NC1=O (stereo not shown) [I-b-1]
- herbicidal effect, Setaria (Setaria viridis [1]): 100%
- herbicidal effect, Avena fatua (Avena fatua [2]): 100%
- herbicidal effect, Veronica (Veronica [3]): 80%
- herbicidal effect, Alopecurus (Alopecurus [4]): 100%
- herbicidal effect, Lolium (Lolium multiflorum [5]): 100%
- Summer wheat observed (%) (Summer wheat; 25 g of a.i./ha): 90%

Structure (SMILES): CCOC(=O)OC1=C(c2c(CC)cc(C)cc2CC)C(=O)NC12CCC(OC)CC2 (single isomer, unassigned) [I-c-2]
- herbicidal effect, Setaria (Setaria viridis [1]): 100%
- herbicidal effect, Veronica (Veronica [3]): 80%
- herbicidal effect, Alopecurus (Alopecurus [4]): 100%
- herbicidal effect, Lolium (Lolium multiflorum [5]): 100%
- herbicidal effect, Echinochloa (Echinochloa crus-galli): 100%
- herbicidal effect, Setaria (Setaria viridis [6]; 80 g of a.i./ha): 90%
- herbicidal effect, Echinochloa (Echinochloa): 100%
- herbicidal effect, Alopecurus (Alopecurus [7]; 80 g of a.i./ha): 90%
- herbicidal effect, Lolium (Lolium multiflorum [8]; 80 g of a.i./ha): 100%

Structure (SMILES): CCOCC(=O)OC1=C(c2c(CC)cc(C)cc2CC)C(=O)NC12CCC(OC)CC2 (single isomer, unassigned) [I-b-2]
- herbicidal effect, Setaria (Setaria viridis [1]): 100%
- herbicidal effect, Avena fatua (Avena fatua [2]): 100%
- herbicidal effect, Veronica (Veronica [3]): 70%
- herbicidal effect, Alopecurus (Alopecurus [4]): 100%
- herbicidal effect, Lolium (Lolium multiflorum [5]): 100%
- nematicidal activity in % by the formation of galls (Meloidogyne incognita): ≥ 70%
- Summer wheat observed (%) (Summer wheat; 12.5 g of a.i./ha): 95%
- herbicidal effect, Setaria (Setaria viridis [6]; 320 g of a.i./ha): 100%
- herbicidal effect, Avena fatua (Avena fatua [9]; 320 g of a.i./ha): 90%
- herbicidal effect, Veronica (Veronica [10]): 100%
- herbicidal effect, Alopecurus (Alopecurus [7]; 320 g of a.i./ha): 100%
- herbicidal effect, Lolium (Lolium multiflorum [8]; 320 g of a.i./ha): 100%

Structure (SMILES): CCc1cc(C)cc(CC)c1C1=C(O)C2(CCC(OC)CC2)NC1=O (stereo not shown) [I-a-1]
- Summer barley observed (%) (Summer barley; [11]): 20%
- Summer barley observed (%) (Summer barley; [12]): 60%
- Summer barley observed (%) (Summer barley; greenhouse, post-emergence, 50 g of a.i./ha): 93%

Structure (SMILES): C=CCOC(=O)OC1=C(c2c(CC)cc(C)cc2CC)C(=O)NC12CCC(OC)CC2 (stereo not shown) [I-c-1]
- herbicidal effect, Setaria (Setaria viridis [1]): 100%
- herbicidal effect, Avena fatua (Avena fatua [2]): 90%
- herbicidal effect, Alopecurus (Alopecurus [4]): 100%
- herbicidal effect, Lolium (Lolium multiflorum [5]): 100%
- herbicidal effect, Echinochloa (Echinochloa crus-galli): 100%
- Summer barley observed (%) (Summer barley; [11]): 35%
- Summer barley observed (%) (Summer barley; [12]): 60%
- herbicidal effect, Setaria (Setaria viridis [6]; 80 g of a.i./ha): 100%
- herbicidal effect, Avena fatua (Avena fatua [9]; 80 g of a.i./ha): 60%
- herbicidal effect, Echinochloa (Echinochloa): 100%
- herbicidal effect, Alopecurus (Alopecurus [7]; 80 g of a.i./ha): 100%
- herbicidal effect, Lolium (Lolium multiflorum [8]; 80 g of a.i./ha): 100%

Structure (SMILES): CCOC1CCC2(CC1)NC(=O)C(c1c(CC)cc(C)cc1CC)=C2O (single isomer, unassigned) [I-a-2]
- Summer wheat observed (%) (Summer wheat; 12.5 g of a.i./ha): 40%
- Summer wheat observed (%) (Summer wheat; 25 g of a.i./ha): 80%
- Summer barley observed (%) (Summer barley; 28 days after application, 25 g of a.i./ha): 25%
- Summer barley observed (%) (Summer barley; 28 days after application, 50 g of a.i./ha): 50%
